Experimental data from patent publication US9113629B2, “4-amino-6-(4-substituted-phenyl)-picolinates and 6-amino-2-(4-substituted-phenyl)-pyrimidine-4-carboxylates and their use as herbicides” (DOW AGROSCIENCES LLC, priority 2013, dated 2015).
Where two headings read alike, the source gives them in different places.

Columns and labels:
[1] = system: Key Broadleaf Weed and Crop Species; assay: Post-emergent Test II herbicidal activity (Table 5); assay type: in vivo; conditions: post-emergence, 336 h, post-emergent, 14 days after application; for pest or weed control at 70 g/ha: 70 g ai/ha; for pest or weed control at 140 g/ha: 140 g ai/ha
How it was run: (§1)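 Foliar application at 187 L/ha to greenhouse-grown seedlings (first or second true leaf); subirrigation thereafter. Visual 0–100% injury at 14 d relative to untreated plants.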

[2] = system: Key Grass and Sedge Weeds as well as Grass Crops; assay: Post-emergent Test II herbicidal activity (Table 6); assay type: in vivo; conditions: post-emergence, 336 h; for pest or weed control at 70 g/ha: application rate 70 g ai/ha; for pest or weed control at 140 g/ha: application rate 140 g ai/ha
How it was run: as §1

[3] = ABUTH: velvetleaf (Abutilon theophrasti), read-out: Visual Growth Reduction (%) 14 Days After Application ABUTH
[4] = AMARE: redroot pigweed (Amaranthus retroflexus), read-out: Visual Growth Reduction (%) 14 Days After Application AMARE
[5] = BRSNN: oilseed-rape, canola (Brassica napus), read-out: Visual Growth Reduction (%) 14 Days After Application BRSNN
[6] = CHEAL: lambsquarters (Chenopodium album), read-out: Visual Growth Reduction (%) 14 Days After Application CHEAL
[7] = EPHHL: wild poinsettia (Euphorbia heterophylla), read-out: Visual Growth Reduction (%) 14 Days After Application EPHHL
[8] = HELAN: sunflower (Helianthus annuus), read-out: Visual Growth Reduction (%) 14 Days After Application HELAN
[9] = VIOTR: wild pansy (Viola tricolor), read-out: Visual Growth Reduction (%) 14 Days After Application VIOTR
[10] = Triticum aestivum, TRZSS (wheat), read-out: Visual Growth Reduction (%) 14 Days After Application, TRZSS
[11] = CYPES: yellow nutsedge (Cyperus esculentus), read-out: Visual Growth Reduction (%) 14 Days After Application, CYPES
[12] = DIGSA: crabgrass (Digitaria sanguinalis), read-out: Visual Growth Reduction (%) 14 Days After Application, DIGSA
[13] = ECHCG: barnyardgrass (Echinochloa crus-galli), read-out: Visual Growth Reduction (%) 14 Days After Application, ECHCG
[14] = ORYSA: rice (Oryza sativa), read-out: Visual Growth Reduction (%) 14 Days After Application, ORYSA
[15] = SETFA: giant foxtail (Setaria faberi), read-out: Visual Growth Reduction (%) 14 Days After Application, SETFA
[16] = SORVU: grain sorghum (Sorghum vulgare), read-out: Visual Growth Reduction (%) 14 Days After Application, SORVU
[17] = ZEAMX: maize, corn (Zea mays), read-out: Visual Growth Reduction (%) 14 Days After Application, ZEAMX

SMILES | pest or weed control at 70 g/ha [1, 3] | pest or weed control at 140 g/ha [1, 3] | pest or weed control at 70 g/ha [1, 5] | pest or weed control at 140 g/ha [1, 5] | pest or weed control at 70 g/ha [1, 6] | pest or weed control at 140 g/ha [1, 6] | pest or weed control at 70 g/ha [1, 7] | pest or weed control at 140 g/ha [1, 7] | pest or weed control at 70 g/ha [1, 8] | pest or weed control at 140 g/ha [1, 8] | pest or weed control at 70 g/ha [1, 9] | pest or weed control at 140 g/ha [1, 9] | pest or weed control at 70 g/ha [2, 10] | pest or weed control at 140 g/ha [2, 10] | pest or weed control at 70 g/ha [2, 11] | pest or weed control at 140 g/ha [2, 11] | pest or weed control at 70 g/ha [2, 12] | pest or weed control at 70 g/ha [2, 13] | pest or weed control at 140 g/ha [2, 13] | pest or weed control at 70 g/ha [2, 14] | other results
COC(=O)c1nc(-c2ccc(Br)cc2)c(Cl)c(N)c1Cl [Compound 47] | 95 to 100% | 95 to 100% | 95 to 100% | 95 to 100% | 95 to 100% | 95 to 100% | 85 to 94% | 95 to 100% | 95 to 100% | 95 to 100% | 0 to 29% | 0 to 29% | 45 to 59% | 45 to 59% | 85 to 94% | 95 to 100% | 75 to 84% | 85 to 94% | 85 to 94% | 0 to 29% | pest or weed control at 70 g/ha [1, 4]: 95 to 100%; pest or weed control at 140 g/ha [1, 4]: 95 to 100%; pest or weed control at 140 g/ha [2, 12]: 75 to 84%; pest or weed control at 140 g/ha [2, 14]: 0 to 29%; pest or weed control at 70 g/ha [2, 15]: 85 to 94%; pest or weed control at 140 g/ha [2, 15]: 95 to 100%; pest or weed control at 70 g/ha [2, 16]: 85 to 94%; pest or weed control at 140 g/ha [2, 16]: 85 to 94%; pest or weed control at 70 g/ha [2, 17]: 85 to 94%; pest or weed control at 140 g/ha [2, 17]: 85 to 94%; melting point: 159.6 to 161.1 °C
C=Cc1c(C(=O)O)nc(-c2ccc(C(F)(F)F)c(F)c2)c(F)c1N [Compound 86] | 95 to 100% | 95 to 100% | 75 to 84% | 95 to 100% | 95 to 100% | 95 to 100% | 95 to 100% | 95 to 100% | 95 to 100% | 95 to 100% | 95 to 100% | 95 to 100% | 0 to 29% | 0 to 29% | 95 to 100% | 95 to 100% | 0 to 29% | 75 to 84% | 85 to 94% | 30 to 44% | pest or weed control at 140 g/ha [2, 12]: 0 to 29%; pest or weed control at 140 g/ha [2, 14]: 45 to 59%; pest or weed control at 70 g/ha [2, 15]: 0 to 29%; pest or weed control at 140 g/ha [2, 15]: 0 to 29%; pest or weed control at 70 g/ha [2, 16]: 75 to 84%; pest or weed control at 70 g/ha [2, 17]: 60 to 74%; pest or weed control at 140 g/ha [2, 17]: 60 to 74%; melting point: 120 to 122 °C
COC(=O)c1nc(-c2cc(F)c(Br)cc2F)c(F)c(N)c1Cl [Compound 51, methyl 4-amino-6-(4-bromo-2,5-difluorophenyl)-3-chloro-5-fluoropicolinate] | 95 to 100% | 95 to 100% | 95 to 100% | 95 to 100% | 95 to 100% | 95 to 100% | 95 to 100% | 95 to 100% | 95 to 100% | 95 to 100% | 95 to 100% | 95 to 100% | 60 to 74% | 85 to 94% | 95 to 100% | 95 to 100% | 95 to 100% | 95 to 100% | 95 to 100% | 0 to 29% | pest or weed control at 70 g/ha [1, 4]: 95 to 100%; pest or weed control at 140 g/ha [1, 4]: 95 to 100%; pest or weed control at 140 g/ha [2, 14]: 0 to 29%; pest or weed control at 70 g/ha [2, 15]: 95 to 100%; pest or weed control at 140 g/ha [2, 15]: 95 to 100%; pest or weed control at 70 g/ha [2, 16]: 95 to 100%; pest or weed control at 140 g/ha [2, 16]: 95 to 100%; pest or weed control at 70 g/ha [2, 17]: 85 to 94%; pest or weed control at 140 g/ha [2, 17]: 85 to 94%; melting point: 153 to 154 °C
COC(=O)c1nc(-c2ccc(C#N)c(F)c2)c(C)c(N)c1Cl [Compound 155, Methyl 4-amino-3-chloro-6-(4-cyano-3-fluorophenyl)-5-methylpicolinate] | 0 to 29% | 0 to 29% | 45 to 59% | 60 to 74% | 85 to 94% | 95 to 100% | 0 to 29% | 0 to 29% | 85 to 94% | 85 to 94% | 0 to 29% | 0 to 29% | 0 to 29% | 0 to 29% | 0 to 29% | 0 to 29% | 0 to 29% | 0 to 29% | 0 to 29% | 0 to 29% | pest or weed control at 70 g/ha [1, 4]: 0 to 29%; pest or weed control at 140 g/ha [1, 4]: 0 to 29%; pest or weed control at 140 g/ha [2, 12]: 0 to 29%; pest or weed control at 140 g/ha [2, 14]: 0 to 29%; pest or weed control at 70 g/ha [2, 15]: 0 to 29%; pest or weed control at 140 g/ha [2, 15]: 0 to 29%; pest or weed control at 70 g/ha [2, 16]: 0 to 29%; pest or weed control at 140 g/ha [2, 16]: 0 to 29%; pest or weed control at 70 g/ha [2, 17]: 0 to 29%; pest or weed control at 140 g/ha [2, 17]: 0 to 29%; melting point: 177 to 180 °C
